Measurements as given in PMC5165251, “Rivaroxaban-Induced Hemorrhage Associated with ABCB1 Genetic Defect” (Frontiers in Pharmacology, 2016).
Entries after “also recorded” stand apart in the source; their conditions may differ. Read-outs that look alike come from different tables or passages of the source.

Legend:
[1] = set-up: method as in Lee et al., 2015; conditions: in vivo; ref Lee et al., 2015; cited from earlier work
[2] = system: CYP3A4/5; conditions: in vitro; ref Lee et al., 2015; cited from earlier work
[3] = system: P-gp; conditions: in vitro; ref Lee et al., 2015; cited from earlier work
[4] = system: CYP3A4/5; experiment: CYP3A4/5 phenotyping with midazolam as probe; conditions: patient, 8 days after hospital admission, concomitant atorvastatin 40 mg q.d.
Procedure: Midazolam was used as a probe to measure the joint activity of CYP3A4/5 as previously described ([Bosilkovska et al., 2014]). Phenotyping was performed 8 days after hospital admission with concomitant treatment of insulin, enoxaparin 60 mg b.i.d., atorvastatin 40 mg q.d.

[5] = system: CYP3A4/5; conditions: ref Bosilkovska et al., 2014, cited from earlier work
[6] = Case report: laboratory testing at hospital admission under rivaroxaban; format: in vivo, human; conditions: 3 months on rivaroxaban 20 mg q.d., normal range 140–180 g/l
[7] = Rivaroxaban plasma concentrations by LC-MS/MS in the patient; format: in vivo, human
Procedure: Rivaroxaban determination was performed using a fully validated LC-MS/MS method according to guidelines of the US Food and Drug Administration and the International Conference on Harmonization. The method was accurate and precise across the dynamic range of 0.5–1000 ng/ml. The LOQ was 0.5 ng/ml. The mean precision and accuracy, calculated from the QCs, were 10.2 and 112%, respectively.
A plasma sample of 40 μl was processed by protein precipitation extraction using acetonitrile (200 μL). Separation was performed on a C18 column (50 mm × 2.1 mm ID; 2.6 μm particle size) and under gradient conditions using formic acid 10 mM in water and formic acid 10 mM in acetonitrile. Detection was by tandem-MS in positive mode using a Qtrap API 6500 from AB sciex (Ontario, Canada) using rivaroxaban-d4 as internal standard (20 ng/ml).

[8] = set-up: method as in Grillo et al., 2012; conditions: PBPK simulation, concurrent renal impairment plus erythromycin, elderly; ref Grillo et al., 2012; cited from earlier work
[9] = biological target: T1, Factor Xa (Homo sapiens, UniProt P00742); experiment: Anti-Xa activity, chromogenic assay (DiXal kit) in patient plasma; format: in vivo; conditions: patient on 20 mg q.d.
T1 construct: purchased Hyphen Biomed, Neuville-Sur-Oise, France
T1 sequence (P00742 235-488 limits assumed): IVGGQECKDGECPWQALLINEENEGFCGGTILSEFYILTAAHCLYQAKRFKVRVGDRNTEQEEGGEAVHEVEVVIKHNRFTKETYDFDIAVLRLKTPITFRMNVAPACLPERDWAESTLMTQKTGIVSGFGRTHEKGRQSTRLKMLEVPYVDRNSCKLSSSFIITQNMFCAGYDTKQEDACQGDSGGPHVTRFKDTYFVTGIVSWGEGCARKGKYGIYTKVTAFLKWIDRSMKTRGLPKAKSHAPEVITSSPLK
T1 sequence (P00742 41-179 partner limits assumed): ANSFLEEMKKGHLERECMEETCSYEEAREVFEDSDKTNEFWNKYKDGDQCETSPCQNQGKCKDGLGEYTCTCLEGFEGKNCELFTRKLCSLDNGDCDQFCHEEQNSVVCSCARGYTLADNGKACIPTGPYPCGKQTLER
Procedure: Anti-Xa activity was measured with a chromogenic assay using the DiXal® kit (Hyphen Biomed, Neuville-Sur-Oise, France) and a BCS XP instrument (Siemens, Marburg, Germany). This method has a limit of detection of 10 ng/ml. No information is given by the manufacturer regarding the limit of quantification (LOQ). However, previous studies have shown a LOQ of 20–30 ng/ml ([Douxfils et al., 2013]). The accuracy and precision calculated from the quality controls (QCs) were 107.0 and 8.8%, respectively, ([Asmis et al., 2012]). An excellent correlation between this method and liquid chromatography-tandem mass spectrometry (LC-MS/MS) has been shown (Spearman correlation coefficient of 0.96) ([Douxfils et al., 2013]).

[10] = system: Mdr1a/Mdr1b/Bcrp; set-up: method as in Gong et al., 2013; conditions: 4 h after administration; ref Gong et al., 2013; cited from earlier work
[11] = set-up: method as in Mueck et al., 2013; conditions: healthy volunteers, ref Mueck et al., 2013, cited from earlier work
[12] = set-up: method as in Mueck et al., 2014; conditions: ref Mueck et al., 2014, cited from earlier work
[13] = set-up: method as in Moore et al., 2014; conditions: moderate renal impairment plus erythromycin vs normal renal function, rivaroxaban 10 mg alone; ref Moore et al., 2014; cited from earlier work
[14] = with ketoconazole 200 mg q.d. vs rivaroxaban alone
[15] = with ketoconazole 400 mg q.d. vs rivaroxaban alone

Question: Which “Impact on nifedipine pharmacokinetics” value [1] does the source give for `CC(C)c1c(C(=O)Nc2ccccc2)c(-c2ccccc2)c(-c2ccc(F)cc2)n1CC[C@@H](O)C[C@@H](O)CC(=O)O` [atorvastatin] here?
Answer: no impact

Question: And the “Inhibition of CYP3A4/5 activity” value [2]?
Answer: inhibited

Question: What about the “Inhibition of P-gp activity” value [3] of the same compound?
Answer: not P-gp activity

Question: Which OH-midazolam/midazolam metabolic ratio [4] does the source give for `Cc1ncc2n1-c1ccc(Cl)cc1C(c1ccccc1F)=NC2` [midazolam] here?
Answer: 0.31

Question: And the OH-midazolam/midazolam metabolic ratio ([5]; healthy volunteers in the presence of a CYP inhibitor (voriconazole))?
Answer: 0.22

Question: What about the OH-midazolam/midazolam metabolic ratio ([5]; healthy volunteers without enzyme inhibitor/inducer) of the same compound?
Answer: 0.50

Question: For `O=C(NC[C@H]1CN(c2ccc(N3CCOCC3=O)cc2)C(=O)O1)c1ccc(Cl)s1` [rivaroxaban], which Hemoglobin level [6] is on record?
Answer: 70 g/L

Question: What about the Rivaroxaban plasma concentrations ([7]; 48 h after the last rivaroxaban dose, patient on 20 mg q.d., LC-MS/MS) of the same compound?
Answer: 88.3 ng/mL

Question: And the Rivaroxaban plasma concentrations ([7]; 96 h (4 days) after the last rivaroxaban dose, patient on 20 mg q.d., LC-MS/MS)?
Answer: 35.6 ng/mL

Question: What about the half-life ([7]; human, plasma, oral, 20 mg q.d. Patient, homozygous ABCB1 variant carrier, moderate acute renal failure, read-out: Estimated half-life) of the same compound?
Answer: 24 to 30 h

Question: And the concentration at 48 h ([7]; human, plasma, oral, 20 mg q.d., 48 h after the last rivaroxaban dose, patient on 20 mg q.d., LC-MS/MS)?
Answer: 88 ng/mL

Question: And the concentration at 72 h ([7]; human, plasma, oral, 20 mg q.d., 72 h after the last rivaroxaban dose, patient on 20 mg q.d., LC-MS/MS)?
Answer: 70.5 ng/mL

Question: What about the concentration at 96 h ([7]; human, plasma, oral, 20 mg q.d., 96 h (4 days) after the last rivaroxaban dose, patient on 20 mg q.d., LC-MS/MS) of the same compound?
Answer: 36 ng/mL

Question: What about the “Estimated half-life relative to usually reported” value ([7]; patient vs usually reported half-life) of the same compound?
Answer: 2–3 times

Question: And the “Increase in rivaroxaban exposure” value [8]?
Answer: 2.5–3 fold

Question: What about the Anti-Xa activity ([9]; 24 h after the last rivaroxaban dose) of the same compound?
Answer: 231 ng/mL

Question: And the Anti-Xa activity ([9]; 48 h after the last rivaroxaban dose)?
Answer: 110 ng/mL

Question: And the Anti-Xa activity ([9]; 60 h after the last rivaroxaban dose)?
Answer: 81 ng/mL

Question: And the Anti-Xa activity ([9]; 72 h after the last rivaroxaban dose)?
Answer: 66 ng/mL

Question: And the Anti-Xa activity ([9]; 84 h after the last rivaroxaban dose)?
Answer: 66 ng/mL

Question: And the Anti-Xa activity ([9]; 96 h (4 days) after the last rivaroxaban dose)?
Answer: 34 ng/mL

Question: And the “Increase in plasma concentration, triple knockout vs wild type mice” value [10]?
Answer: 1.7 fold

Question: And the “Increase in rivaroxaban AUC” value [11, 14]?
Answer: 82%

Question: And the “Increase in rivaroxaban Cmax” value [11, 14]?
Answer: 53%

Question: What about the “Increase in rivaroxaban AUC” value [11, 15] of the same compound?
Answer: 158%

Question: And the “Increase in rivaroxaban Cmax” value [11, 15]?
Answer: 72%

Question: And the half-life ([12]; old patients)?
Answer: 11 to 13 h

Question: What about the Oral bioavailability [12] of the same compound?
Answer: 80–100%

Question: What about the “Part of the dose eliminated as unchanged drug in the urine” value [12] of the same compound?
Answer: more than one third; also recorded: About one third

Question: What about the “Increase in rivaroxaban AUC” value [13] of the same compound?
Answer: approximately 99%

Question: What about the “Increase in rivaroxaban Cmax” value [13] of the same compound?
Answer: ~64%
